Where “and” joins values, the source holds several entries; their conditions need not be identical. Identical values can stand only once.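 The compound was tested at five concentrations on cells cultured in 96-well plates, with a 48-hour exposure period. GI50 marks 50% less growth. TGI: concentration producing complete growth inhibition.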
Legend:
Assay in all cases: DTP human tumour cell line panel, 48 h
EKVX NSCLC = tested on: EKVX NSCLC
HOP-62 NSCLC = tested on: HOP-62 NSCLC
HT29 colon = tested on: HT29 colon
SK-OV-3 ovarian = tested on: SK-OV-3 ovarian
SNB-19 CNS = tested on: SNB-19 CNS
SW-620 colon = tested on: SW-620 colon
UACC-257 melanoma = tested on: UACC-257 melanoma
K-562 leukemia = tested on: K-562 leukemia
CCRF-CEM leukemia = tested on: CCRF-CEM leukemia
SR leukemia = tested on: SR leukemia

Row | SMILES | TGI (EKVX NSCLC) | TGI (HOP-62 NSCLC) | TGI (HT29 colon) | TGI (SK-OV-3 ovarian) | TGI (SNB-19 CNS) | TGI (SW-620 colon) | TGI (UACC-257 melanoma) | TGI (K-562 leukemia) | TGI (CCRF-CEM leukemia) | TGI (SR leukemia) | GI50 (HT29 colon) | GI50 (SK-OV-3 ovarian) | GI50 (UACC-257 melanoma)
1 | O=C(Cc1ccccc1)NN1C(=O)/C(=C\c2ccccc2)SC1=Nc1ccccc1 | > 100 µM | > 100 µM | > 100 µM | > 100 µM | > 100 µM | > 100 µM | > 100 µM | – | – | – | – | – | –
2 | CC(=O)O[C@H]1C(=O)[C@@]2(C)[C@H]([C@H](OC(=O)c3ccc(F)cc3)[C@]3(O)C[C@H](OC(=O)[C@H](O)[C@@H](NC(=O)c4ccccc4)c4ccccc4)C(C)=C1C3(C)C)[C@]1(OC(C)=O)CO[C@@H]1C[C@@H]2O | > 25 µM | > 25 µM | 3.85 µM | – | > 25 µM | > 25 µM | > 25 µM | 0.172 µM | – | – | – | – | –
3 | Cc1ccc([N+](=O)[O-])cc1N=NC(=O)NNc1cc([N+](=O)[O-])ccc1C | – | > 100 µM | 45 µM | 36 µM | > 100 µM | – | – | > 100 µM | 40.2 µM | > 100 µM | – | – | –
4 | CC1CN=C(N(C(=O)Nc2ccc(F)c(Cl)c2)c2ccccc2)S1 (stereo unspecified) | 62.4 µM | 61.6 µM | 58 µM | 98.7 µM | > 100 µM | 90.3 µM | 58.7 µM | > 100 µM | > 100 µM | – | – | – | –
5 | CSc1c(C#N)c(N)n(-c2ccc(C)cc2)c(=O)c1C#N | > 100 µM | – | > 100 µM | > 100 µM | > 100 µM | > 100 µM | > 100 µM | > 100 µM | > 100 µM | > 100 µM | – | – | –
6 | COc1ccc(-c2c3c([nH]c(=S)c2C#N)CC(C)(C)CC3=O)cc1 | > 100 µM | > 100 µM | > 100 µM | – | > 100 µM | > 100 µM | > 100 µM | > 100 µM | > 100 µM | > 100 µM | – | – | –
7 | CC1(C)C2CC(=O)C1(C)C(O)C2Br (stereo unspecified) | > 100 µM | > 100 µM | > 100 µM | > 100 µM | > 100 µM | > 100 µM | – | > 100 µM | > 100 µM | – | – | – | –
8 | CCN(CC)CCCNC(=O)c1ccc([N+](=O)[O-])cc1O | > 100 µM | > 100 µM | > 100 µM | > 100 µM | > 100 µM | > 100 µM | > 100 µM | > 100 µM | > 100 µM | – | – | – | –
9 | Cc1cc2c([N+](=O)[O-])cc3c(c2o1)C(=O)C=CC3=O | 11.5 µM | 34.1 µM | 4.67 µM | > 80.1 µM | 30.9 µM | – | 7.23 µM | > 100 µM | – | > 76.4 µM | – | – | –
10 | O=C(NC(COC(=O)C(Cc1ccccc1)NC(=O)c1ccccc1)Cc1ccccc1)c1ccccc1 (stereo unspecified) | > 50 µM | > 50 µM | > 50 µM | > 50 µM | > 50 µM | > 50 µM | > 50 µM | > 50 µM | – | > 50 µM | – | – | –
11 | Cc1ccc(OCCn2cc(Nc3ccccc3)c(=O)n(CCOc3ccc(C)cc3)c2=O)cc1 | > 100 µM | – | > 100 µM | – | > 100 µM | > 100 µM | > 100 µM | > 100 µM | > 100 µM | – | – | – | –
12 | O=C(Oc1cc(=O)c(OC(=O)c2ccccc2)co1)c1ccccc1 | – | > 100 µM | > 100 µM | > 100 µM | > 100 µM | > 100 µM | > 100 µM | – | – | > 100 µM | – | – | –
13 | Nc1nc(Cl)cc(NCC2(CO)CCC(CCc3ccccc3)C2)n1 (stereo unspecified) | 25.9 µM | 23.1 µM | 21.4 µM | 35.1 µM | 31.3 µM | 36 µM | 22.6 µM | 41.6 µM | 40.1 µM | – | – | – | –
14 | N=C(N)c1ccc(-c2ccc(-c3cccs3)s2)cc1 | – | – | 2.6 µM | 9.64 µM | – | – | 3.15 µM | – | – | – | 1.24 µM | 4.15 µM | 1.72 µM
15 | COc1cc2c(cc1OC)[C@H]1CN3CCC[C@H]3C=C1c1ccc(OC)c(O)c1-2 | – | – | 0.0218 µM and 0.0484 µM | 0.000342 µM | – | – | 0.00835 µM | – | 0.0376 µM and 0.35 µM | 0.00437 µM | – | – | –
16 | CCOC(=O)C1(C(=O)OCC)COS(=O)OC1 | – | – | > 100 µM | > 100 µM | > 100 µM | 36.1 µM | > 100 µM | > 100 µM | > 100 µM | > 100 µM | – | – | –
17 | CC(=O)c1cccn1/C=C(\OC(=O)OC(C)(C)C)c1ccc[nH]1 | > 100 µM | > 100 µM | – | – | > 100 µM | > 100 µM | > 100 µM | > 100 µM | > 100 µM | > 100 µM | – | – | –
18 | NC(CC1=CS(=O)(=O)c2ccc(Cl)cc21)C(=O)O (stereo unspecified) | > 100 µM | > 100 µM | > 100 µM | > 100 µM | > 100 µM | > 100 µM | > 100 µM | > 100 µM | – | > 100 µM | – | – | –

— PubChem BioAssay (NCI)
